The supplement of paper PMC10307832

Compound: COc1cc(Nc2ncc3c(n2)-c2ccc(Cl)cc2C(c2c(F)cccc2OC)=NC3)ccc1C(=O)O [Alisertib] + CC(C)C[C@H](NC(=O)[C@H](Cc1ccccc1)NC(=O)c1cnccn1)B(O)O [Bortezomib] (partner 0.002 µM)
Experiment: relative viability (nuclei count vs DMSO), 5 days (fraction); higher = more cells survive
Outline: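 Nuclei were stained with Hoechst during a one-step fixation (final 0.05% Triton X-100, 1% formaldehyde, 1 ug/ml Hoechst) carried out 5 days after dosing, then counted on 4× images. The cells, lung cancer lines in 1536-well plates, had been dosed by pin tool the day after seeding with one drug alone or a fixed anchor-drug dose plus five library-drug doses (not always all listed) in √10 steps. Relative viability is the nuclei count in treated wells divided by that in vehicle wells, and each value is the median of duplicate plates.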

H3255
relative viability (first compound 0.005 µM): 0.664 | relative viability (first compound 0.01581 µM): 0.733 | relative viability (first compound 0.05 µM): 0.46 | relative viability (first compound 0.1581 µM): 0.216 | relative viability (first compound 0.5 µM): 0.195

EPLC-272H
relative viability (first compound 0.005 µM): 0.794 | relative viability (first compound 0.01581 µM): 0.856 | relative viability (first compound 0.05 µM): 0.79 | relative viability (first compound 0.1581 µM): 0.135 | relative viability (first compound 0.5 µM): 0.13

RERF-LC-KJ
relative viability (first compound 0.005 µM): 0.945 | relative viability (first compound 0.01581 µM): 1.05 | relative viability (first compound 0.05 µM): 0.879 | relative viability (first compound 0.1581 µM): 0.293 | relative viability (first compound 0.5 µM): 0.304

EKVX
relative viability (first compound 0.005 µM): 0.967 | relative viability (first compound 0.01581 µM): 0.8 | relative viability (first compound 0.05 µM): 0.391 | relative viability (first compound 0.1581 µM): 0.185 | relative viability (first compound 0.5 µM): 0.169

ChaGo-K-1
relative viability (first compound 0.005 µM): 0.88 | relative viability (first compound 0.01581 µM): 0.696 | relative viability (first compound 0.05 µM): 0.322 | relative viability (first compound 0.1581 µM): 0.276 | relative viability (first compound 0.5 µM): 0.232

NCI-H23
relative viability (first compound 0.005 µM): 0.875 | relative viability (first compound 0.01581 µM): 0.39 | relative viability (first compound 0.05 µM): 0.272 | relative viability (first compound 0.1581 µM): 0.158 | relative viability (first compound 0.5 µM): 0.164

EMC-BAC-2
relative viability (first compound 0.005 µM): 0.91 | relative viability (first compound 0.01581 µM): 0.947 | relative viability (first compound 0.05 µM): 0.579 | relative viability (first compound 0.1581 µM): 0.229 | relative viability (first compound 0.5 µM): 0.243

LOU-NH91
relative viability (first compound 0.005 µM): 0.509 | relative viability (first compound 0.01581 µM): 0.427 | relative viability (first compound 0.05 µM): 0.388 | relative viability (first compound 0.1581 µM): 0.364 | relative viability (first compound 0.5 µM): 0.405

LU99A
relative viability (first compound 0.005 µM): 1.15 | relative viability (first compound 0.01581 µM): 0.872 | relative viability (first compound 0.05 µM): 0.396 | relative viability (first compound 0.1581 µM): 0.24 | relative viability (first compound 0.5 µM): 0.182

NCI-H460
relative viability (first compound 0.005 µM): 1.07 | relative viability (first compound 0.01581 µM): 0.9 | relative viability (first compound 0.05 µM): 0.428 | relative viability (first compound 0.1581 µM): 0.0287 | relative viability (first compound 0.5 µM): 0.0157

201T
relative viability (first compound 0.005 µM): 1.05 | relative viability (first compound 0.01581 µM): 1.07 | relative viability (first compound 0.05 µM): 1.08 | relative viability (first compound 0.1581 µM): 1.07 | relative viability (first compound 0.5 µM): 0.694

NCI-H2405
relative viability (first compound 0.005 µM): 0.932 | relative viability (first compound 0.01581 µM): 0.929 | relative viability (first compound 0.05 µM): 0.95 | relative viability (first compound 0.1581 µM): 0.494 | relative viability (first compound 0.5 µM): 0.298

NCI-H1703
relative viability (first compound 0.005 µM): 0.337 | relative viability (first compound 0.01581 µM): 0.287 | relative viability (first compound 0.05 µM): 0.134 | relative viability (first compound 0.1581 µM): 0.147 | relative viability (first compound 0.5 µM): 0.102

NCI-H1755
relative viability (first compound 0.005 µM): 0.891 | relative viability (first compound 0.01581 µM): 0.886 | relative viability (first compound 0.05 µM): 0.877 | relative viability (first compound 0.1581 µM): 0.389 | relative viability (first compound 0.5 µM): 0.318

NCI-H2087
relative viability (first compound 0.005 µM): 0.88 | relative viability (first compound 0.01581 µM): 0.702 | relative viability (first compound 0.05 µM): 0.186 | relative viability (first compound 0.1581 µM): 0.172 | relative viability (first compound 0.5 µM): 0.199

NCI-H2228
relative viability (first compound 0.005 µM): 0.809 | relative viability (first compound 0.01581 µM): 0.827 | relative viability (first compound 0.05 µM): 0.406 | relative viability (first compound 0.1581 µM): 0.142 | relative viability (first compound 0.5 µM): 0.134

NCI-H838
relative viability (first compound 0.005 µM): 0.774 | relative viability (first compound 0.01581 µM): 0.655 | relative viability (first compound 0.05 µM): 0.422 | relative viability (first compound 0.1581 µM): 0.25 | relative viability (first compound 0.5 µM): 0.158

NCI-H661
relative viability (first compound 0.005 µM): 0.845 | relative viability (first compound 0.01581 µM): 0.557 | relative viability (first compound 0.05 µM): 0.521 | relative viability (first compound 0.1581 µM): 0.304 | relative viability (first compound 0.5 µM): 0.297

NCI-H520
relative viability (first compound 0.005 µM): 0.463 | relative viability (first compound 0.01581 µM): 0.377 | relative viability (first compound 0.05 µM): 0.199 | relative viability (first compound 0.1581 µM): 0.173 | relative viability (first compound 0.5 µM): 0.186

EBC-1
relative viability (first compound 0.005 µM): 0.537 | relative viability (first compound 0.01581 µM): 0.467 | relative viability (first compound 0.05 µM): 0.239 | relative viability (first compound 0.1581 µM): 0.186 | relative viability (first compound 0.5 µM): 0.162

NCI-H727
relative viability (first compound 0.005 µM): 0.796 | relative viability (first compound 0.01581 µM): 0.795 | relative viability (first compound 0.05 µM): 0.46 | relative viability (first compound 0.1581 µM): 0.329 | relative viability (first compound 0.5 µM): 0.301

NCI-H1299
relative viability (first compound 0.005 µM): 0.995 | relative viability (first compound 0.01581 µM): 0.983 | relative viability (first compound 0.05 µM): 0.674 | relative viability (first compound 0.1581 µM): 0.457 | relative viability (first compound 0.5 µM): 0.286

NCI-H1993
relative viability (first compound 0.005 µM): 0.97 | relative viability (first compound 0.01581 µM): 0.982 | relative viability (first compound 0.05 µM): 0.549 | relative viability (first compound 0.1581 µM): 0.542 | relative viability (first compound 0.5 µM): 0.497

PC-14
relative viability (first compound 0.005 µM): 0.876 | relative viability (first compound 0.01581 µM): 0.732 | relative viability (first compound 0.05 µM): 0.515 | relative viability (first compound 0.1581 µM): 0.208 | relative viability (first compound 0.5 µM): 0.0801

NCI-H1437
relative viability (first compound 0.005 µM): 0.489 | relative viability (first compound 0.01581 µM): 0.457 | relative viability (first compound 0.05 µM): 0.191 | relative viability (first compound 0.1581 µM): 0.191 | relative viability (first compound 0.5 µM): 0.114

LCLC-103H
relative viability (first compound 0.005 µM): 1.19 | relative viability (first compound 0.01581 µM): 1.01 | relative viability (first compound 0.05 µM): 1.09 | relative viability (first compound 0.1581 µM): 0.262 | relative viability (first compound 0.5 µM): 0.3

NCI-H441
relative viability (first compound 0.005 µM): 0.715 | relative viability (first compound 0.01581 µM): 0.394 | relative viability (first compound 0.05 µM): 0.184 | relative viability (first compound 0.1581 µM): 0.17 | relative viability (first compound 0.5 µM): 0.155

SW 1573
relative viability (first compound 0.005 µM): 0.937 | relative viability (first compound 0.01581 µM): 0.726 | relative viability (first compound 0.05 µM): 0.492 | relative viability (first compound 0.1581 µM): 0.29 | relative viability (first compound 0.5 µM): 0.161

BEN
relative viability (first compound 0.005 µM): 0.691 | relative viability (first compound 0.01581 µM): 0.867 | relative viability (first compound 0.05 µM): 0.398 | relative viability (first compound 0.1581 µM): 0.229 | relative viability (first compound 0.5 µM): 0.2

LC-2-ad
relative viability (first compound 0.005 µM): 0.907 | relative viability (first compound 0.01581 µM): 0.369 | relative viability (first compound 0.05 µM): 0.264 | relative viability (first compound 0.1581 µM): 0.144 | relative viability (first compound 0.5 µM): 0.112

COR-L23
relative viability (first compound 0.005 µM): 0.895 | relative viability (first compound 0.01581 µM): 0.789 | relative viability (first compound 0.05 µM): 0.647 | relative viability (first compound 0.1581 µM): 0.137 | relative viability (first compound 0.5 µM): 0.131

NCI-H1650
relative viability (first compound 0.005 µM): 0.175 | relative viability (first compound 0.01581 µM): 0.21 | relative viability (first compound 0.05 µM): 0.174 | relative viability (first compound 0.1581 µM): 0.182 | relative viability (first compound 0.5 µM): 0.199

SK-LU-1
relative viability (first compound 0.005 µM): 0.963 | relative viability (first compound 0.01581 µM): 0.862 | relative viability (first compound 0.05 µM): 0.503 | relative viability (first compound 0.1581 µM): 0.403 | relative viability (first compound 0.5 µM): 0.253
